Measured values reported in the CheMixHub viscosity set.

Experiment: xn = mol fraction of the nth substance listed

CC1CCC(C)O1 (stereo not given) + Brc1ccccc1
viscosity [mPa·s], 101 kPa
Details	x1 = 0.0965	x1 = 0.2006	x1 = 0.3011	x1 = 0.4016	x1 = 0.4921
298.15 K	1.003	0.941	0.8808	0.8196	0.7658
313.15 K	0.833	0.7831	0.7338	0.6848	0.6411

CC1CCCO1 (stereo not given) + Brc1ccccc1
viscosity [mPa·s], 101 kPa
Details	x1 = 0.0991	x1 = 0.1998	x1 = 0.301	x1 = 0.4046	x1 = 0.5029
298.15 K	1.007	0.9516	0.8942	0.8346	0.7773
313.15 K	0.835	0.7895	0.7425	0.6943	0.6477

CC(C)CO + C1CCCCC1
303.15 K, 101.33 kPa
Details	viscosity [mPa·s]
x2 = 0.1485	1.976
x2 = 0.2985	1.513
x2 = 0.4515	1.185
x2 = 0.6051	0.962
x2 = 0.7417	0.839
x2 = 0.8981	0.762

CCOC(=O)CC + C1CCCCC1
viscosity [mPa·s], 101 kPa
Details	298.15 K	308.15 K
x1 = 0.0526	0.835	0.709
x1 = 0.1334	0.767	0.65
x1 = 0.2568	0.686	0.579
x1 = 0.3148	0.656	0.553
x1 = 0.4538	0.603	0.505
x1 = 0.4986	0.59	0.493
x1 = 0.5085	0.588	0.491
x1 = 0.6558	0.561	0.465
x1 = 0.7181	0.556	0.459
x1 = 0.8504	0.556	0.456
x1 = 0.9312	0.564	0.459

Cc1ccccc1O + C1CCCCC1
308.15 K, 101 kPa
Details	viscosity [mPa·s]
x1 = 0.0821	0.8505
x1 = 0.1618	0.9431
x1 = 0.2824	1.146
x1 = 0.3677	1.341
x1 = 0.4418	1.568
x1 = 0.5033	1.708
x1 = 0.5871	2.049
x1 = 0.7934	3.199
x1 = 0.8996	4.104

C=CC(=O)OC + C1CCOC1
viscosity [mPa·s], 101 kPa
Details	293.15 K	298.15 K	303.15 K	308.15 K	313.15 K	318.15 K
x2 = 0.0773	0.4982	0.4567	0.4181	0.3852	0.3553	0.3283
x2 = 0.1554	0.4934	0.454	0.4172	0.3854	0.3561	0.3294
x2 = 0.2064	0.4907	0.4527	0.4169	0.3858	0.3569	0.3304
x2 = 0.2545	0.4885	0.4517	0.417	0.3865	0.3579	0.3315
x2 = 0.3215	0.486	0.4508	0.4174	0.3878	0.3596	0.3333
x2 = 0.3989	0.4838	0.4505	0.4186	0.3898	0.362	0.3358
x2 = 0.4655	0.4826	0.4507	0.4201	0.392	0.3644	0.3382
x2 = 0.53	0.4819	0.4515	0.422	0.3945	0.3671	0.3409
x2 = 0.6023	0.4819	0.453	0.4246	0.3977	0.3706	0.3442
x2 = 0.6834	0.4826	0.4553	0.4282	0.4018	0.3748	0.3483
x2 = 0.7632	0.4841	0.4583	0.4323	0.4064	0.3795	0.3528
x2 = 0.8468	0.4865	0.4622	0.4372	0.4118	0.3849	0.3579
x2 = 0.9316	0.4899	0.467	0.4429	0.4177	0.3909	0.3634

C=CC(=O)OCCCC + C1CCOC1
viscosity [mPa·s], 101 kPa
Details	293.15 K	298.15 K	303.15 K	308.15 K	313.15 K	318.15 K
x2 = 0.0712	0.8609	0.8036	0.7505	0.7019	0.6569	0.6143
x2 = 0.1406	0.8246	0.7708	0.721	0.6751	0.6321	0.5913
x2 = 0.208	0.7908	0.7403	0.6935	0.65	0.609	0.5698
x2 = 0.2779	0.7572	0.71	0.6661	0.6249	0.5858	0.5482
x2 = 0.3685	0.7159	0.6727	0.6323	0.594	0.5571	0.5213
x2 = 0.4339	0.6875	0.6471	0.609	0.5727	0.5374	0.5028
x2 = 0.4996	0.6603	0.6225	0.5867	0.5522	0.5182	0.4848
x2 = 0.5642	0.6347	0.5995	0.5657	0.5328	0.5002	0.4677
x2 = 0.6426	0.6053	0.5729	0.5415	0.5104	0.4792	0.4478
x2 = 0.7208	0.5778	0.548	0.5187	0.4893	0.4592	0.4288
x2 = 0.7956	0.553	0.5256	0.4981	0.4701	0.4411	0.4115
x2 = 0.8642	0.5316	0.5063	0.4803	0.4534	0.4253	0.3964
x2 = 0.9322	0.5117	0.4882	0.4637	0.4378	0.4103	0.3819

CC(C)CO + C1COCCO1
298.15 K, 101 kPa
Details	viscosity [mPa·s]
x2 = 0.0416	2.787
x2 = 0.125	2.14
x2 = 0.2354	1.668
x2 = 0.3104	1.489
x2 = 0.4165	1.296
x2 = 0.4739	1.231
x2 = 0.5066	1.206
x2 = 0.5756	1.153
x2 = 0.5788	1.144
x2 = 0.7141	1.107
x2 = 0.7411	1.098
x2 = 0.7859	1.107
x2 = 0.832	1.099
x2 = 0.8845	1.109
x2 = 0.9419	1.131

CCCCCOC(C)=O + C1COCCO1
303.15 K, 101.3 kPa
Details	viscosity [mPa·s]
x2 = 0.0981	0.7721
x2 = 0.2981	0.8134
x2 = 0.505	0.8719
x2 = 0.7018	0.9452
x2 = 0.9003	1.037

Cc1ccccc1O + C1COCCO1
308.15 K, 101 kPa
Details	viscosity [mPa·s]
x2 = 0.1	4.947
x2 = 0.2	4.855
x2 = 0.3	4.267
x2 = 0.4	3.498
x2 = 0.5	2.795
x2 = 0.6	2.208
x2 = 0.7	1.764
x2 = 0.8	1.382
x2 = 0.9	1.163

CCCCCOC(C)=O + C=Cc1ccccc1
Details	viscosity [mPa·s]
298.15 K, 101 kPa, x2 = 0.103	0.802

CCn1cc[n+](C)c1.O=S(=O)([O-])C(F)(F)F + CC1COC(=O)O1
101 kPa
Details	viscosity [mPa·s]
298.15 K, x1 = 0.6987	21.65
303.15 K, x1 = 0.0999	3.915
303.15 K, x1 = 0.1999	5.315
303.15 K, x1 = 0.6987	18.45
308.15 K, x1 = 0.1999	4.575
313.15 K, x1 = 0.3998	6.675
318.15 K, x1 = 0.8998	17.65
323.15 K, x1 = 0.0999	2.425
323.15 K, x1 = 0.3998	5.115

Cc1ccccc1O + CC12CCC(CC1)C(C)(C)O2
viscosity [mPa·s], 101 kPa
Details	x2 = 0.0644	x2 = 0.1341	x2 = 0.2098	x2 = 0.2923	x2 = 0.3825	x2 = 0.4817	x2 = 0.5911	x2 = 0.7125	x2 = 0.8479
303.15 K	6.716	7.057	7.387	7.431	7.201	6.63	5.917	4.949	3.732
308.15 K	5.48	5.76	5.997	6.081	5.929	5.628	5.058	4.201	3.201
313.15 K	4.569	4.81	4.944	5.041	5.032	4.696	4.12	3.359	2.48

C=CC(=O)OC + CC#N
viscosity [mPa·s], 100 kPa
Details	293.15 K	298.15 K	303.15 K	308.15 K	313.15 K	318.15 K
x2 = 0.0591	0.4934	0.4511	0.4118	0.3786	0.3488	0.3221
x2 = 0.1171	0.4832	0.4422	0.4042	0.3721	0.3431	0.3171
x2 = 0.17	0.474	0.4343	0.3976	0.3664	0.3383	0.313
x2 = 0.2356	0.4627	0.4247	0.3896	0.3597	0.3327	0.3083
x2 = 0.2977	0.4524	0.416	0.3824	0.3537	0.3278	0.3043
x2 = 0.3615	0.4422	0.4074	0.3754	0.348	0.3232	0.3007
x2 = 0.4343	0.431	0.398	0.3679	0.3419	0.3185	0.2971
x2 = 0.5014	0.4212	0.3899	0.3614	0.3368	0.3146	0.2943
x2 = 0.5738	0.4112	0.3818	0.3551	0.332	0.311	0.2918
x2 = 0.6537	0.4009	0.3736	0.349	0.3274	0.3078	0.2897
x2 = 0.7623	0.3881	0.3635	0.3417	0.3223	0.3046	0.2883
x2 = 0.8155	0.3823	0.3592	0.3387	0.3204	0.3037	0.2882
x2 = 0.9074	0.3729	0.3523	0.3342	0.3179	0.303	0.2889

C=CC(=O)OCCCC + CC#N
viscosity [mPa·s], 100 kPa
Details	293.15 K	298.15 K	303.15 K	308.15 K	313.15 K	318.15 K
x2 = 0.061	0.8625	0.8036	0.7492	0.6997	0.6541	0.611
x2 = 0.1168	0.8292	0.7725	0.7202	0.6725	0.6285	0.587
x2 = 0.1832	0.7901	0.7361	0.6864	0.641	0.5992	0.5596
x2 = 0.2571	0.7473	0.6964	0.6497	0.607	0.5677	0.5304
x2 = 0.3094	0.7174	0.6687	0.6241	0.5834	0.5459	0.5103
x2 = 0.3825	0.6761	0.6306	0.589	0.551	0.516	0.4829
x2 = 0.4563	0.6351	0.5928	0.5542	0.519	0.4866	0.4558
x2 = 0.5282	0.5958	0.5566	0.521	0.4885	0.4585	0.4301
x2 = 0.5779	0.569	0.532	0.4985	0.4678	0.4395	0.4126
x2 = 0.6483	0.5319	0.4979	0.4672	0.4391	0.4132	0.3886
x2 = 0.7299	0.49	0.4596	0.4322	0.4071	0.384	0.362
x2 = 0.8143	0.4484	0.4216	0.3977	0.3758	0.3556	0.3364
x2 = 0.9182	0.3998	0.3778	0.3584	0.3405	0.3241	0.3086
